“Also recorded” adds a separate entry of the source.

One test has as its system p-IRS-1 in podocytes. As to the kind of experiment: Immunofluorescence of p-IRS-1 in insulin-treated podocytes. It is filed as cell-based, human. Particulars: 400 nmol/l insulin for 10 min. Here is the method: (§1) The conditionally immortalized human podocyte cell line (provided by Moin Saleem, University of Bristol, UK) was cultured in RPMI1640 medium (R8756, Sigma Aldrich, Budapest, Hungary) supplemented with 10% heat-inactivated FBS (16170-078, Gibco, Budapest, Hungary), insulin-transferrin-selenium supplement (41400-045, Gibco), 100 U/mL penicillin, 0.1 mg/mL streptomycin (P4333, Sigma), and […] (equimolar to the original p-Tyr content of the medium) para-, meta-, or ortho-Tyr. The cells were grown at 33 °C 5% CO2, and when they reached 40–60% confluency they were transferred to 37 °C to differentiate. Following the thermoswitching, cells were kept on RPMI1640 medium containing 2% FBS, antibiotics, and different tyrosines. Before every treatment, cells were incubated in serum-deprived medium overnight.
(§2) In a 6-well plate, 104 cells were cultured on glass coverslips washed with alcohol and dried under UV light. The podocyte cells were grown in RPMI1640 medium supplemented with 10% heat-inactivated FBS at 33 °C, 5% CO2. When they reached 60% confluence, the medium was changed to RPMI1640 medium containing 2% FBS and 112.05 nM of the different tyrosine isoforms, then the plates were transferred to 37 °C, 5% CO2 to allow the cells to differentiate. The different tyrosine isoforms were added to the maintenance medium. The cells were serum deprived overnight, then incubated with 400 nmol/l insulin for 10 min. After removal of the medium, the coverslips were washed twice with PBS. The cells were fixed at room temperature in 2% paraformaldehyde and 4% sucrose for 8 min, then permeabilized using 0.3% Trion X-100 in 1xPBS for 20 min and blocked in 2.5% BSA for 45 min [45]. The primary antibody was diluted in 1xPBS, and the cells were incubated in it for 60 min in humid conditions. The antibodies we used were mouse anti-WT1 antibody (H-1) (1:100, Santa Cruz Biotechnology, Dallas, TX, USA), chicken anti-vimentin antibody (1:100, Abcam), rabbit anti-glucose transporter GLUT4 antibody (1:100, Abcam, Cambridge, UK), mouse Insulin Receptor Substrate-1 antibody (1:100, Invitrogen, Waltham, MA, USA), and rabbit anti-phospho-Insulin Receptor Substrate-1 (pTyr612) antibody (1:10, Sigma). Coverslips were washed in PBS three times for 5 min in PBS and incubated in the fluorophore-conjugated secondary antibodies anti-goat, anti-chicken, secondary antibody Alexa fluor 647, anti-rabbit Alexa fluor 350, and anti-mouse Alexa Fluor 488 (1:10, Invitrogen) for 60 min. Samples were then washed in PBS three times for 5 min and mounted in Vectashield (Vector Laboratories). Images were taken with a Nikon Eclipse Ti2 microscope.

Test [1] has as its system 3T3-L1 adipocytes. As to the kind of experiment: HPLC of non-protein-bound intracellular tyrosines. It is filed as cell-based, mouse. The note with it: 5 or 25 mmol/L glucose, with or without 400 nmol/L insulin. On the procedure: (§3) Early passages of mouse embryo fibroblast (3T3-L1) (ATCC, Manassas, VA, US) were cultured in Dulbecco’s modified Eagle medium (DMEM, Sigma Aldrich, Budapest, Hungary, CAT number: D6046; Invitrogen, Waltham, MA, USA, CAT number: 41966-029) supplemented with 100 U/mL penicillin, 0.1 mg/mL streptomycin (Gibco, Budapest, Hungary, CAT number: 15070-063) and 10% heat-inactivated Fetal Bovine Serum (FBS, Gibco, CAT number: 16170-078), supplemented with 398 nM p-, m-, or o-Tyr (equimolar to the original p-Tyr content of the medium) purchased from Sigma (CAT number: para-Tyr: T8566, m-Tyr: T3629, o-Tyr: 93851). Media contained 25 or 5 mmol/L glucose (experiment dependent) pyruvate and L-glutamine. Cells were grown at 37 °C and 5% CO2. Adipocyte differentiation was achieved by DMEM supplemented with 10% FBS (Gibco, Csertex, Budapest, Hungary, CAT number: 10106-169) (FBS) and a […] insulin (Sigma Aldrich, Budapest, Hungary, CAT number: I 9278), […] isobuthylmethylxanthine (Sigma Aldrich, Budapest, Hungary, CAT number: I 5879), and 250 nmol/L dexamethasone (Sigma Aldrich, Budapest, Hungary, CAT number: 861871) containing cocktail. From day 4 onward, cultures were maintained in DMEM containing 1.5 μg/mL insulin and 10% FBS with a medium change every other day until experimental treatments were started. After 90% of the cell population reached the adipocyte phenotype, prior to all treatments, cells were incubated overnight in serum-deprived medium. Experimental treatment was performed in serum-deprived medium containing 200 or 400 nmol/L insulin, for 5 min.
To measure the total intracellular non-protein-bound tyrosine concentration, prior to the freezing of samples overnight at −70 °C to achieve cell lysis, 200 μL distilled water was added to each. After melting up, samples were centrifuged for 15 min at 15,000 rpm. A total of 200 µL of the supernatant was mixed with 200 µL of 60% trichloroacetic acid. After 30 min incubation on ice, samples were centrifuged again at 15,000 rpm for 15 min. Then, the supernatant was filtered and was diluted 5-fold and then 160 µL distilled water was added to 40 µL of filtrate, followed by the injection of the mixture onto the HPLC column.
The amounts of p-, o-, m-Tyr and Phe in the samples were determined by measuring their autofluorescence. Thus, no derivatization or staining was needed. Samples were measured on a Shimadzu Class 10 HPLC system equipped with an RF-10 AXL fluorescent detector (Shimadzu USA Manufacturing Inc., Canby, OR, USA). The mobile phase consisted of 1% sodium acetate and 1% acetic acid dissolved in water. The separation took place on a LiChroCHART 250-4 column (Merck KGaA, Darmstadt 64271, Germany) in an isocratic run. Wavelengths of 275 nm for excitation and 305 nm for emission were used to assess p-, o- and m-Tyr, while Phe was detected at 258 nm excitation and 288 nm emission wavelengths. Determination of the area under the curve (AUC) plus external standard calibration was used to calculate the precise concentrations of the amino acids.

The subject of test [2] is GLUT4 and vimentin in podocytes. Nature of the test: Immunofluorescence of GLUT4 and vimentin in insulin-treated podocytes. Particulars: 400 nmol/l insulin for 10 min. It is filed as cell-based, human. Here is the method: as §1, §2
Test [3] deals with 3T3-L1 adipocytes. Nature of the test: Isotope glucose uptake (deoxy-D-glucose 2-[1 2-3H(N)]) in differentiated 3T3-L1 adipocytes. It is filed as cell-based, mouse. On the procedure:
as §3
Initially, cells were kept in glucose-free DMEM (Gibco, Csertex, Budapest, Hungary) for 30 min and then were treated with 2, 20, 200, or 400 nmol/L insulin for 100 min. Concurrently, 1 μCi/mL deoxy-D-glucose 2-[1 2-3H(N)] (3.7 × 104 Bq/mL) (Izotóp Intézet, Budapest, Hungary) was added to the plates for 100 min. After scraping the cells into the medium, they were centrifuged for 5 min at 1000 rpm. We dissolved the sediment in 70 μL of lysis buffer, then glucose uptake was determined by scintillation counting by measuring 30 μL of the sample, using a Beckman LS 5000 TD counter, in counts per minute (CPM), for five minutes each, with average activity was used as the outcome. Following freezing overnight at −70 °C, protein concentration was measured with a Hitachi spectrophotometer. Results were normalized for protein content.

The subject of test [4] is IR kinase (989–1382, fused to GST). As to the kind of experiment: IR kinase phosphorylation assay, capillary electrophoresis. It is filed as biochemical. Particulars: 200 μM peptide, 875 nM IR kinase, 1 mM ATP, 5 mM MgCl2, pH 7.5. On the procedure:
Enzymatically active IR kinase (989–1382, fused to GST and produced in SF9 cells) was ordered from SinoBiological (catalog number 11081-H20B1). The stock solution was aliquoted and frozen separately to preserve activity. Prior to comparative measurements, the activity of recombinant IR kinase was tested on internal control peptides and found to be suitable for kinase assays.
The kinase assay mixture contained 200 μM peptide (GRKGSGDYMPMSPKV) and 875 nM IR kinase in kinase buffer (20 mM potassium phosphate (monobasic), 15 mM sodium phosphate (dibasic), 103 mM NaCl, 5 mM MgCl2, 5% glycerol, 0.05% Igepal; pH 7.5). The reaction was initialized by addition of 1 mM ATP. The phosphatase reaction mixture contained 80 μM peptide (GRKGSGD(phosphoY)MPMSPKV) in buffer (50 mM TRIS, 150 mM NaCl, 1 mM EDTA and 2 mM DTT; pH 7.4). The reaction was initialized by addition of 25 nM PTP1B enzyme. Equal aliquots of the kinase or the phosphatase reaction mixture were subjected to capillary electrophoresis analysis at the indicated time points after the start the reaction.
Background electrolyte (BGE) components phosphoric acid and triethylamine were purchased from Sigma (St. Louis, MO, USA) and from Merck GmbH (Darmstadt, Germany), respectively. Capillary electrophoresis was performed with an Agilent Capillary Electrophoresis 3DCE system (Agilent Technologies, Waldbronn, Germany) applying DB-WAX coated capillary having a 33.5 cm total and 25 cm effective length with 50 μm I.D. (Agilent Technologies, Santa Clara, CA, USA). On-line absorption at 200 nm was monitored by DAD UV-Vis detector. The capillary was thermostated at 25 °C. Before measurements, the capillary was rinsed subsequently with distilled water for 15 min and between measurements with BGE (100 mM trimethylamine-phosphate buffer; pH 2.5) for 3 min. Samples were injected by 5 × 10^3 Pa pressure for 6 s. Runs were performed in the positive-polarity mode with 20 kV.

A further test relates to Akt (Ser473). As to the kind of experiment: Western blot, activating phosphorylation of Akt (Ser473). It is filed as cell-based. Particulars: 400 nmol/L insulin; adipocytes, HEK cells, podocytes, macrophages; n = 4–8. On the procedure:
as §3, §1
(§4) HEK-293 immortalized cell line (ATCC, Manassas, VA, USA) of epithelial morphology and the J774A.1 mouse BALB/C monocyte-macrophage cell lines (91051511-1VL, Sigma Aldrich, Budapest, Hungary) were cultured in Petri dishes with a medium composed of Dulbecco’s modified Eagle’s medium (DMEM, Sigma Aldrich, Budapest, Hungary, CAT number: D6046, Invitrogen, CAT number: 41966-029), with a 10% heat-inactivated FBS supplementation (16170-078, Gibco), insulin-transferrin-selenium supplement (41400-045, Gibco, Budapest, Hungary,), 100 U/mL penicillin and 0.1 mg/mL streptomycin (P4333, Sigma) and 398 nM para (5 and 25 mmol/L), meta-, or ortho-Tyr (T8566, T3629, 93851, Sigma). Before treatment, cells were incubated in serum-deprived medium overnight as well. […]
(§5) The samples of lysates were vortexed and centrifuged (10 min, 13,000 rpm, at 4 °C). Protein content of the samples was determined by the Lowry method using bovine serum albumin as a standard. […]
For orientation: In western blotting, separated proteins are transferred to a membrane and probed.

In another test the test system is IRS-1 (Tyr612). Nature of the test: Western blot, activating phosphorylation of IRS-1 (Tyr612). It is filed as cell-based. The note with it: 400 nmol/L insulin; adipocytes, HEK cells, podocytes, macrophages; n = 4–8. On the procedure:
as §3, §1, §4, §5

Take `N[C@@H](Cc1ccc(O)cc1)C(=O)O` [p-Tyr, para-tyrosine, reference compound]: the “membrane translocation of IRS-1 / p-IRS-1” value in the test with p-IRS-1 in podocytes was “clearly demonstrated; also recorded: located in the membrane”. Further, the p-IRS-1 intensity entry in the test on p-IRS-1 in podocytes (vs. p-Tyr) was “more intense”. Further, the “cellular uptake of amino acids (non-protein-bound intracellular content)” value in the test on 3T3-L1 adipocytes [1] was “continuous uptake of amino acids which was independent of glucose concentration (5 or 25 mmol/L) and the presence of insulin”. In addition, the GLUT4 membrane localization result in test [2] is “characteristic localization of GLUT-4 positivity; also recorded: GLUT4 aggregates are transported to the membrane”. The “reversal of inhibitory effect of o- and m-Tyr on glucose uptake” value in the test with 3T3-L1 adipocytes [3] (increasing p-Tyr concentrations, with or without 400 nmol/L insulin, n = 10) is listed as “ameliorated by increasing concentrations of p-Tyr”.
As for “GRKGSGDF(2-hydroxy)MPMSPKV [o-tyrosine containing peptides, unphosphorylated ortho-tyrosine IRS-1 YXXM motif peptide]”, the “phosphorylation by IR kinase” value in test [4] is listed as “neither o- nor m-tyrosine containing peptides are substrates for the IR kinase”; in test [4] (listed as ortho-tyrosine peptides), “very poor substrates”.
For “GRKGSGDF(4-hydroxy)MPMSPKV [p-Tyr containing “natural” peptide, unphosphorylated para-tyrosine IRS-1 YXXM motif peptide]”, in test [4], the “phosphorylation by IR kinase” value was “efficiently phosphorylated”.
Take “insulin: insulin (Sigma Aldrich, I 9278)”: in the test with Akt (Ser473), the “insulin-induced Akt phosphorylation” value was “approximately two-fold”. Besides, the “insulin-induced glucose uptake, time dependence” value with 3T3-L1 adipocytes [3] (200 nmol/L insulin, cells grown 1, 2, 3, 4, 5 or 12 days with p-, m- or o-Tyr, n = 5–8) is reported as “approximately two-fold”. The “insulin-induced glucose uptake, 5 mmol/L glucose” value in the test with 3T3-L1 adipocytes [3] (2, 20, 200, 400 nmol/L insulin, 5 mmol/L glucose, medium with p-, m- or o-Tyr) is given as “marked increase in glucose uptake in 5 mmol/L glucose”. Moreover, the “insulin-induced IRS-1 phosphorylation” value in the test on IRS-1 (Tyr612) is “approximately two-fold”.
For “GRKGSGDF(3-hydroxy)MPMSPKV [m-tyrosine containing peptides, unphosphorylated meta-tyrosine IRS-1 YXXM motif peptide]”, the “phosphorylation by IR kinase” value is given as “neither o- nor m-tyrosine containing peptides are substrates for the IR kinase” in test [4] and “very poor substrates” in test [4] (listed as meta-tyrosine peptides).

The record behind these values is publication PMC9138545, “Incorporation of Oxidized Phenylalanine Derivatives into Insulin Signaling Relevant Proteins May Link Oxidative Stress to Signaling Conditions Underlying Chronic Insulin Resistance” (Biomedicines, 2022).
